Seven compounds from PubChem BioAssay (NCI) can be followed below.

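Method: 48-hour compound exposure of cells in 96-well plates, five concentrations, linear interpolation of endpoints. TGI: concentration producing complete growth inhibition.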 A value given as a limit tells only on which side of the number the result lay.

Broadly, the TGI is the concentration at which net growth stops. The low end stands for greater sensitivity of the cells, the high end for lower sensitivity of the cells.

The subject of one test is MDA-MB-435. As to the kind of experiment: DTP human tumour cell line panel, 48 h.
`COC(=O)C1CCC(=O)N1C(c1ccccc1)c1ccc(OC)c(OC)c1` (stereo unspecified) gave a TGI above 100 µM.

For `CC(C)C1/C(=N/O)CC(c2ccccc2)N(N=O)C1c1ccccc1` (stereo unspecified), the TGI turned out to be 72.4 µM.

`O=[N+]([O-])C(=C1NCCN1)/C(Cl)=C(\Cl)Br` displayed a TGI above 63.2 µM.

`Cc1cc(N(CCC#N)CCC#N)ccc1/C(N=Nc1ccc(Cl)cc1)=N\NC(=O)c1ccccc1`: the TGI stood at 76.8 µM.

A further test deals with NCI/ADR-RES ovarian. The test can be described thus: DTP human tumour cell line panel, 48 h.
Compound `Nc1cccc2cc(Cl)cnc12` gave a TGI above 100 µM.

`COc1c(C)c(C/C=C(\C)CCCCO[Si](c2ccccc2)(c2ccccc2)C(C)(C)C)c(OC)c(OC)c1OC` had a TGI of 35.1 µM.

`CC(C)CC(=O)OC[n+]1ccc(-c2c(COC(=O)NC(C)C)c(COC(=O)NC(C)C)c3n2CCC3)cc1` had a concentration for total growth inhibition (TGI) above 100 µM.

As for `COC(=O)C1CCC(=O)N1C(c1ccccc1)c1ccc(OC)c(OC)c1` (stereo unspecified), the TGI is above 100 µM.

`CC(C)C1/C(=N/O)CC(c2ccccc2)N(N=O)C1c1ccccc1` (stereo unspecified): the TGI was above 100 µM.

Consider `O=[N+]([O-])C(=C1NCCN1)/C(Cl)=C(\Cl)Br`, for which the TGI is above 100 µM.

`Cc1cc(N(CCC#N)CCC#N)ccc1/C(N=Nc1ccc(Cl)cc1)=N\NC(=O)c1ccccc1` came in with a TGI above 100 µM.

The subject of a further test is OVCAR-4 ovarian. The test can be described thus: DTP human tumour cell line panel, 48 h.
Turning to `Nc1cccc2cc(Cl)cnc12`, the TGI was above 100 µM.

On to `COc1c(C)c(C/C=C(\C)CCCCO[Si](c2ccccc2)(c2ccccc2)C(C)(C)C)c(OC)c(OC)c1OC`, for which the TGI was above 46.4 µM.

As to `CC(C)CC(=O)OC[n+]1ccc(-c2c(COC(=O)NC(C)C)c(COC(=O)NC(C)C)c3n2CCC3)cc1`, the TGI is above 100 µM.

In the case of `COC(=O)C1CCC(=O)N1C(c1ccccc1)c1ccc(OC)c(OC)c1` (stereo unspecified), the TGI is above 100 µM.

`CC(C)C1/C(=N/O)CC(c2ccccc2)N(N=O)C1c1ccccc1` (stereo unspecified) displayed a TGI above 100 µM.

For `O=[N+]([O-])C(=C1NCCN1)/C(Cl)=C(\Cl)Br`, the TGI was above 100 µM.

Regarding `Cc1cc(N(CCC#N)CCC#N)ccc1/C(N=Nc1ccc(Cl)cc1)=N\NC(=O)c1ccccc1`, the TGI is above 100 µM.

For a further test, the system named is RPMI-8226 leukemia. As to the kind of experiment: DTP human tumour cell line panel, 48 h.
Turning to `Nc1cccc2cc(Cl)cnc12`, the TGI was above 100 µM.

`COc1c(C)c(C/C=C(\C)CCCCO[Si](c2ccccc2)(c2ccccc2)C(C)(C)C)c(OC)c(OC)c1OC`: the TGI is above 46.4 µM.

For `CC(C)CC(=O)OC[n+]1ccc(-c2c(COC(=O)NC(C)C)c(COC(=O)NC(C)C)c3n2CCC3)cc1`, the TGI is above 100 µM.

For `COC(=O)C1CCC(=O)N1C(c1ccccc1)c1ccc(OC)c(OC)c1` (stereo unspecified), the concentration for total growth inhibition (TGI) was above 100 µM.

As for `CC(C)C1/C(=N/O)CC(c2ccccc2)N(N=O)C1c1ccccc1` (stereo unspecified), the TGI was above 100 µM.

As for `O=[N+]([O-])C(=C1NCCN1)/C(Cl)=C(\Cl)Br`, the TGI was determined as 62.4 µM.

In the case of `Cc1cc(N(CCC#N)CCC#N)ccc1/C(N=Nc1ccc(Cl)cc1)=N\NC(=O)c1ccccc1`, the TGI is above 100 µM.

In a further test the test system is SF-539 CNS. The test can be described thus: DTP human tumour cell line panel, 48 h.
As for `Nc1cccc2cc(Cl)cnc12`, the TGI is above 100 µM.

Turning to `COc1c(C)c(C/C=C(\C)CCCCO[Si](c2ccccc2)(c2ccccc2)C(C)(C)C)c(OC)c(OC)c1OC`, the TGI was above 46.4 µM.

In turn, `CC(C)CC(=O)OC[n+]1ccc(-c2c(COC(=O)NC(C)C)c(COC(=O)NC(C)C)c3n2CCC3)cc1` yielded a total growth inhibition concentration (TGI) above 100 µM.

In the case of `COC(=O)C1CCC(=O)N1C(c1ccccc1)c1ccc(OC)c(OC)c1` (stereo unspecified), the TGI is above 100 µM.

Turning to `CC(C)C1/C(=N/O)CC(c2ccccc2)N(N=O)C1c1ccccc1` (stereo unspecified), the TGI is above 100 µM.

As for `O=[N+]([O-])C(=C1NCCN1)/C(Cl)=C(\Cl)Br`, the TGI is above 100 µM.

`Cc1cc(N(CCC#N)CCC#N)ccc1/C(N=Nc1ccc(Cl)cc1)=N\NC(=O)c1ccccc1` showed a TGI of 50.8 µM.

The next test has as its system SN12C renal. The test can be described thus: DTP human tumour cell line panel, 48 h.
The compound `Nc1cccc2cc(Cl)cnc12` had a TGI above 100 µM.

For the compound `COc1c(C)c(C/C=C(\C)CCCCO[Si](c2ccccc2)(c2ccccc2)C(C)(C)C)c(OC)c(OC)c1OC`, the TGI was above 46.3 µM.

On to `CC(C)CC(=O)OC[n+]1ccc(-c2c(COC(=O)NC(C)C)c(COC(=O)NC(C)C)c3n2CCC3)cc1`, for which the TGI was above 100 µM.

With `COC(=O)C1CCC(=O)N1C(c1ccccc1)c1ccc(OC)c(OC)c1` (stereo unspecified), the TGI was above 100 µM.

In the case of `CC(C)C1/C(=N/O)CC(c2ccccc2)N(N=O)C1c1ccccc1` (stereo unspecified), the TGI is above 100 µM.

As for `O=[N+]([O-])C(=C1NCCN1)/C(Cl)=C(\Cl)Br`, the TGI was above 100 µM.

Turning to `Cc1cc(N(CCC#N)CCC#N)ccc1/C(N=Nc1ccc(Cl)cc1)=N\NC(=O)c1ccccc1`, the TGI was above 100 µM.

The subject of the next test is T-47D breast. As to the kind of experiment: DTP human tumour cell line panel, 48 h.
In turn, `Nc1cccc2cc(Cl)cnc12` returned a TGI above 100 µM.

For the compound `COc1c(C)c(C/C=C(\C)CCCCO[Si](c2ccccc2)(c2ccccc2)C(C)(C)C)c(OC)c(OC)c1OC`, the TGI was above 100 µM.

In turn, `CC(C)CC(=O)OC[n+]1ccc(-c2c(COC(=O)NC(C)C)c(COC(=O)NC(C)C)c3n2CCC3)cc1` registered a TGI above 100 µM.

`COC(=O)C1CCC(=O)N1C(c1ccccc1)c1ccc(OC)c(OC)c1` (stereo unspecified) yielded a TGI above 100 µM.

Consider `CC(C)C1/C(=N/O)CC(c2ccccc2)N(N=O)C1c1ccccc1` (stereo unspecified), for which the TGI came to 96.2 µM.

`O=[N+]([O-])C(=C1NCCN1)/C(Cl)=C(\Cl)Br` yielded a TGI of 40.6 µM.

`Cc1cc(N(CCC#N)CCC#N)ccc1/C(N=Nc1ccc(Cl)cc1)=N\NC(=O)c1ccccc1` gave a TGI of 88.3 µM.
